Results from US6090787A, “Antithrombotic agents” (Eli Lilly and Company, priority 1999, dated 2000).
Square brackets hold non-standard residues; d marks the D form. Peptide text beside a SMILES is read from it. dPip = O=C(O)[C@H]1CCCCN1; Sar = CNCC(=O)O

What was measured:
Format in all cases: biochemical
[1] = molecular target: T1, tissue plasminogen activator (t-PA) (Homo sapiens, UniProt P00750); assay: Fibrinolytic protease selectivity, Kass, t-PA chromogenic assay; details: apparent association constant
T1 construct: purchased American Diagnostica, Greenwich, Conn
Experimental: (§1) By substantially following the procedures described above for human thrombin, and using other human blood coagulation system serine proteases and proteases of the fibrinolytic system with the appropriate chromogenic substrates, identified below, selectivity of the compounds of the present invention with respect to the coagulation factor serine proteases and with respect to the fibrinolytic system serine proteases are evaluated as well as their substantial lack of interference with serine proteases of the fibrinolytic system. Thrombin inhibitors preferably should spare fibrinolysis induced by urokinase, tissue plasminogen activator (t-PA) and streptokinase. This would be important to the therapeutic use of such agents as an adjunct to streptokinase, t-PA or urokinase thrombolytic therapy and to the use of such agents as an endogenous fibrinolysis-sparing (with respect to t-PA and urokinase) antithrombotic agent. In addition to the lack of interference with the amidase activity of the fibrinolytic proteases, such fibrinolytic system sparing can be studied by the use of human plasma clots and their lysis by the respective fibrinolytic plasminogen activators.
(§2) Human plasmin is purchased from Boehringer Mannheim, Indianapolis, Indiana; nt-PA is purchased as single chain activity reference from American Diagnostica, Greenwich, Conn.; modified-t-PA6 (mt-PA6) is prepared at Eli Lilly and Company by procedure known in the art (See, Burck, et al., J. Biol. Chem., 265, […] (1990). Plasmin chromogenic substrate H--D--Val--Leu--Lys--p--nitroanilide and tissue plasminogen activator (t-PA) substrate H--D--Ile--Pro--Arg--p--nitroanilide are purchased from Kabi Vitrum, Stockholm, Sweden.

Human plasmin = molecular target: T2, Human plasmin (Homo sapiens, UniProt P00747); assay: Fibrinolytic protease selectivity, Kass, plasmin chromogenic assay; details: apparent association constant
T2 construct: Human plasmin is purchased from Boehringer Mannheim; purchased Boehringer Mannheim, Indianapolis, Indiana
Experimental: as §1, §2

human thrombin = molecular target: T3, human thrombin (Homo sapiens, UniProt P00734); assay: Inhibition of amidase activity of thrombin (Kass), chromogenic substrate; details: apparent association constant, mean over a range of concentrations
T3 construct: purified human thrombin, Enzyme Research Laboratories; purchased Enzyme Research Laboratories, South Bend, Indiana
Experimental: The assay is carried out by mixing 50 μL buffer (0.03 M Tris, 0.15 M NaCl, pH 7.4) with 25 μL of bovine thrombin or human thrombin solution (0.21 mg/mL of thrombostat bovine thrombin, Parke-Davis, or purified human thrombin, Enzyme Research Laboratories, South Bend, Indiana, at about 8 NIH units/mL, in the same buffer) and 25 μL of test compound in a solvent (in 50% aqueous methanol, v:v). The 150 μL of an aqueous solution of the chromogenic substrate (at 0.25 mg/mL) are added and the rates of hydrolysis of the substrate are measured by monitoring the reactions at 405 nm for the release of p-nitroaniline. Standard curves are constructed by plotting free thrombin concentration against hydrolysis rate. The hydrolysis rates observed with test compounds are then converted to "free thrombin" values in the respective assays by use of the standard curves. The bound thrombin (bound to test compound) is calculated by subtracting the amount of free thrombin observed in each assay from the known initial amount of thrombin used in the assay. The amount of free inhibitor in each assay is calculated by subtracting the number of moles of bound thrombin from the number of moles of added inhibitor (test compound).
The Kass value is the hypothetical equilibrium constant for the reaction between thrombin and the test compound (I). [formula]
Kass is calculated for a range of concentrations of test compounds and the mean value is reported in units of liter per mole.

Bovine trypsin = molecular target: T4, Bovine trypsin (Bos taurus, UniProt P00760); assay: Serine protease selectivity, Kass, trypsin chromogenic assay; details: apparent association constant
T4 construct: purchased Worthington Biochemicals, Freehold, N.J
T4 sequence (P00760 24-246): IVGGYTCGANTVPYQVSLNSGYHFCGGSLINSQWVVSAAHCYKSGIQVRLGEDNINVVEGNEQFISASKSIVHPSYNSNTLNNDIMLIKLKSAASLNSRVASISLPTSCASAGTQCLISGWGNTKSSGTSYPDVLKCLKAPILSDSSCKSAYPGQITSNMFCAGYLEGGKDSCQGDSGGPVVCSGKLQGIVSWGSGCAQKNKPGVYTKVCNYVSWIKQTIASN
Experimental: as §1
Human factors X, Xa, IXa, XIa, and XIIa are purchased from Enzyme Research Laboratories, South Bend, Ind.; human urokinase from Leo Pharmaceuticals, Denmark; and recombinant activated Protein C (aPC) is prepared at Eli Lilly and Co. substantially according to U.S. Pat. No. 4,981,952 incorporated by reference herein in its entirety. Chromogenic substrates: N--Benzoyl--Ile--Glu--Gly--Arg--p--nitroanilide (for factor Xa); N--Cbz--D--Arg--Gly--Arg--p--nitroanilide (for factor IXa assay as the factor Xa substrate); Pyroglutamyl--Pro--Arg--p--nitroanilide (for Factor XIa and for aPC); H--D--Pro--Phe--Arg--p--nitroanilide (for factor XIIa); and Pyroglutamyl--Gly--Arg--p--nitroanilide (for urokinase); are purchased from KabiVitrum, Stockholm, Sweden, or from Midwest Biotech, Fishers, Indiana. Bovine trypsin is purchased from Worthington Biochemicals, Freehold, N.J., and human plasma kallikrein from Kabi Vitrum, Stockholm, Sweden. Chromogenic substrate H--D--Pro--Phe--Arg--p--nitroanilide for plasma kallikrein is purchased from Kabi Vitrum, Stockholm, Sweden. N--Benzoyl--Phe--Val--Arg--p--nitroanilide, the substrate for human thrombin and for trypsin, is synthesized according to procedures described above for the compounds of the present invention, using known methods of peptide coupling from commercially available reactants or purchased from Midwest Biotech, Fishers, Ind.

T2 sequence (P00747 581-810 limits assumed): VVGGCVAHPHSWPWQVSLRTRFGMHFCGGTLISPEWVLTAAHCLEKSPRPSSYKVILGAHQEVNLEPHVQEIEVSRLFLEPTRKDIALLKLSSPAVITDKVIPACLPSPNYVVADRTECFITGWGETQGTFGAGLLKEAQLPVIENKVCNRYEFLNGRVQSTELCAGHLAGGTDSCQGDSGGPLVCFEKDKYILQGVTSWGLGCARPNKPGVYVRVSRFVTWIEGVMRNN
T2 sequence (P00747 97-580 partner limits assumed): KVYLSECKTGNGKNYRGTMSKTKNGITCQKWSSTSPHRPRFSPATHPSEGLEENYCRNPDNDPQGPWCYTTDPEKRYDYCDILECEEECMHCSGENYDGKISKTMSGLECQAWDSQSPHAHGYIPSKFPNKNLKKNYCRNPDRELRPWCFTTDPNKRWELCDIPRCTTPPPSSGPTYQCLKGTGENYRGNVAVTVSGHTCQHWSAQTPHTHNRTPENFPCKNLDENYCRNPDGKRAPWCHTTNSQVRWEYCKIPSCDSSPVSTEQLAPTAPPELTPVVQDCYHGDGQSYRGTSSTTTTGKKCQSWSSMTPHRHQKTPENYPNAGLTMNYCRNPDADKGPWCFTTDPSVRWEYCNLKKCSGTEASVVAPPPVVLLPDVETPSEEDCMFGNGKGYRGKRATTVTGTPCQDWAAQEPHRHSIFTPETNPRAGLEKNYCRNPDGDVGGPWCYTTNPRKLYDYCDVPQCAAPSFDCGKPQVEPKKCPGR
T1 sequence (P00750 36-562): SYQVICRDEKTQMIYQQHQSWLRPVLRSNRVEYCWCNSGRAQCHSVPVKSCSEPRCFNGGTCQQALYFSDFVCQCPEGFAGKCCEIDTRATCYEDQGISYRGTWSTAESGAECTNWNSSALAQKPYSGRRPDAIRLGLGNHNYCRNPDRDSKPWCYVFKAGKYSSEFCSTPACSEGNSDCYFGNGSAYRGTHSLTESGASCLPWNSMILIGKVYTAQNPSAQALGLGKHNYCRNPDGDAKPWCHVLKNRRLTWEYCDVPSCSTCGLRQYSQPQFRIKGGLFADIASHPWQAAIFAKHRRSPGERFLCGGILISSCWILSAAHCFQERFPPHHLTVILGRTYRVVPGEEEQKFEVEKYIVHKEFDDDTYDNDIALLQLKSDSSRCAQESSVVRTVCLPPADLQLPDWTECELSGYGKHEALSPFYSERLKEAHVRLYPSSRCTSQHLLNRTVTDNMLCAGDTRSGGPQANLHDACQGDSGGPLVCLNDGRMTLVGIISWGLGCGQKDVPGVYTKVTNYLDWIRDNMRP

| Structure (SMILES) | Enzyme Kass t-PA [1] [L/mol × 10^6] | Enzyme Kass Plasmin (Human plasmin) [L/mol × 10^6] | Enzyme Kass Human Thrombin (human thrombin) [L/mol × 10^6] | Enzyme Kass Trypsin (Bovine trypsin) [L/mol × 10^6] |
| --- | --- | --- | --- | --- |
| CN(CC(=O)N[C@H](C=O)CCCNC(=N)N)C(=O)[C@H]1CCCCN1.Cl.Cl [Example 1, D-homoprolyl-N-methylglycyl-L-argininal dihydrochloride] (H-[dPip]-[Sar]-Arg-aldehyde) | 0.0039 | 0.031 | 22 | 0.88 |
| CC(C)CCN(CC(=O)N[C@H](C=O)CCCN=C(N)N)C(=O)[C@H]1CCCCN1.Cl.Cl [Example 6, D--hPro--N(isoamyl)Gly--ArgH.2HCl] | 0.004 | 0.059 | 16 | 5.9 |
| Cl.Cl.N=C(N)NCCC[C@@H](C=O)NC(=O)CN(CCc1ccccc1)C(=O)[C@H]1CCCCN1 [Example 8, D-homoprolyl-N-(2-phenylethyl)glycyl-L-argininal dihydrochloride] | 0.009 | 0.44 | 87 | 2.7 |
